Measured values from paper PMC10477886, “Adamantaniline Derivatives Target ATP5B to Inhibit Translation of Hypoxia Inducible Factor‐1α” (Advanced Science, 2023).

Experiments:
[1] = plasma concentration and pharmacokinetics after intraperitoneal administration in ICR mice; type: in vivo; conditions: for concentration in the plasma (rough screen): intraperitoneal 50 mg kg^−1, two mice per compound, five times
Protocol: (§1) First, we roughly screened the concentrations in the plasma of seven selected compounds (1‐3n, 1‐3au, 1‐4a, 1‐4k, 1‐4l, 1‐4m, and 1‐4p) at indicated times after intraperitoneal administration in the Institute of Cancer Research (ICR) mice at a dose of 50 mg kg^−1 with two mice per compound, the blood at five different times was collected and the plasma concentration was analyzed finally. […] Besides, we examined the toxicity of HI‐104 in ICR mice by administering for 1 week at a dose of 100 mg kg^−1 by intraperitoneal injection.

[2] = system: HIF‐1α transcriptional activity; test: dual‐luciferase assay (HRE‐Firefly Luciferase / renilla) of HIF‐1α transcriptional activity in HEK293T cells; type: cell-based, human; conditions: for inhibition at 10 µM / IC50: Homo sapiens, HEK-293T, mean ± s.d. (n = 3); for inhibition at 10 µM: incubation 24 h, read-out: Inhibition rate [%] @ 10 µM; for IC50: HEK293T dual‐luciferase
Source text: To screen HIF‐1α inhibitors in a robust cell‐based assay, we optimized the dual‐luciferase assay with pLenti‐HIF‐1αP2A (P402A and P564A) instead of pLenti‐HIF‐1α in order to ensure the expression of HIF‐1α under normoxia condition. In the cell‐based assay, HEK293T cells were co‐transfected with pLenti‐HIF‐1αP2A, renilla, and hypoxia‐responsive element (HRE)‐Firefly Luciferase (Figure S1, Supporting Information). […] Three compounds were selected as the positive controls including two inhibitors (PX‐478 2HCl and BAY 87‐2243) and an activator (BAY 85‐3934) in the screening assay.
HEK293T cells were stably transfected with reporter plasmids pGMLV‐HRE‐LUC‐puromycin, pMSCV‐renilla‐hygromycin, and pLenti‐HIF‐1αP2A‐neomycin. Stable cell line constructed above, 293‐HIF‐1αP2A‐HRE‐Fluc‐Rluc, were seeded in 384‐well plates and cultured in DMEM with 10% FBS. The following day, the cells were pretreated with indicated chemical compounds from the National Compound Library of the Shanghai Institute of Materia Medica, Chinese Academy of Sciences by Mosquito HTS. The plate was then placed in an incubator chamber and incubated at 37 °C for 24 h. The ratio of firefly/renilla luciferase activity was determined by using the Envision (PerkinElmer).
Stable cell line 293‐HRE‐Fluc‐Rluc expressed luciferase and renilla or HEK293T cells transfected with indicated plasmids (pGL3‐HRE‐luciferase and pSV40‐renilla) were seeded in a 96‐well plate. The cells were co‐incubated with indicated compounds for 24 h and luciferase activities were detected in Microplate Reader (BioTek SYNEGRY H1) using the Dual Luciferase Reporter Assay System Kit (Promega, USA E1910) according to the manufacturer's instruction. The relative Luc activity was normalized by renilla activity. Three independent experiments were performed, and the calculated means and SDs are presented.

[3] = toxicity in ICR mice, administering for 1 week; type: in vivo; conditions: 100 mg kg^−1 intraperitoneal for 1 week
Protocol: as §1

MHCC97‐L xenograft tumor = test: MHCC97‐L xenograft model in nude mice (wildtype and ATP5A/ATP5B knock‐out); type: in vivo
Source text: HIF‐1α overexpression is implicated in human hepatocellular carcinoma (HCC).^[ [57] ^] To investigate the biological significance of HI‐104 in the progression of HCC by targeting ATP5A or ATP5B, we performed xenograft models in nude mice with ATP5A or ATP5B stable knock‐out MHCC97‐L cell lines (Figure 6A). The cells were inoculated to 6–8 weeks old nude mice under the armpits, and daily intraperitoneal injection of HI‐104 was started after the tumor volume reached 100 mm^3. Tumor volume and body weight were monitored during the treatment.
MHCC97L wildtype and ATP5A or ATP5B stable knock‐out cells (3 × 10^6) were implanted subcutaneously into the right flanks of 6‐week‐old female BALB/c nude mice. After most of the tumors had reached a threshold size of 100 mm^3, the mice received an intraperitoneal injection of vehicle alone (10% DMSO, 10% Cremophor, and 80% saline, pH 7–8) or HI‐104 over 10 days. The tumor volume was monitored every other day with calipers. After 10 days of treatment or if the mice met humane endpoint criteria, the mice were sacrificed, and tumors were dissected, photographed, and weighed. Tumor tissues were either collected and fixed in 10% neutral‐buffered formalin or snap‐frozen in liquid N2 and stored at −80 °C for subsequent analyses. All animals used in this study were handled in accordance with federal and institutional guidelines under a protocol approved by the Institutional Animal Care and Use Committee at Shanghai Jiao Tong University School of Medicine.

HIF‐1α protein level = test: western blot of HIF‐1α protein level in cells; type: cell-based, human; conditions: hypoxia
Protocol: Cells were lysed with RIPA lysis (Epizyme, PC101) containing 1% cocktail protease inhibitors (MCE), and protein concentrations were determined by BCA kits (Beyotime, P0012S). Samples were denatured using DS‐PAGE Protein Staining and Loading Buffer (5×) (Beyotime, P0015L) followed by boiling for 10 min at 98 °C then the proteins were fractionated by 10% or 12.5% SDS‐PAGE and transferred to Cellulose Nitrate Membrane Filters (WHATMAN). After blocking in 5% non‐fat milk for 2 h at room temperature, the membrane was incubated overnight with specific antibodies at 4 °C, followed by horseradish peroxidase (HRP)‐linked anti‐mouse or anti‐rabbit secondary antibody (Cell Signaling Technology). Finally, An Immobilon Western Chemiluminescent HRP Substrate Kit (Merck Millipore) was used for protein bands detection. In addition, blots were probed with anti‐β‐actin (Merck, Darmstadt, Germany) antibody as the internal control.

F1‐ATP synthase complex = F1‐ATP synthase complex (Sus scrofa, UniProt K7GLT8+P80021); test: fluorescence polarization binding assay; set-up: species or system pig
Sequence of F1‐ATP synthase complex (K7GLT8 entry or part of it): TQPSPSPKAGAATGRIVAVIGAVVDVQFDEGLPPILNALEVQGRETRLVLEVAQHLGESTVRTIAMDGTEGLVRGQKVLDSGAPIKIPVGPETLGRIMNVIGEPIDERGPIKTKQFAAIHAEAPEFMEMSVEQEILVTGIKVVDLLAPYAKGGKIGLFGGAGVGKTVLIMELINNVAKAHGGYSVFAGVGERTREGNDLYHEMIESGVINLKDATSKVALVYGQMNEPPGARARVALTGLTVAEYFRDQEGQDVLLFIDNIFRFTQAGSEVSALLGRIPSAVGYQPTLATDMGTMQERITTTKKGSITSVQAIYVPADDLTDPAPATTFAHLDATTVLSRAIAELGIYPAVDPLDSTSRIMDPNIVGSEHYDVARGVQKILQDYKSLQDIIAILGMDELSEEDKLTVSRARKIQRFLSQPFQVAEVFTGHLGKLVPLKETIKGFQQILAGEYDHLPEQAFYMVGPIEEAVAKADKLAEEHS
Sequence of F1‐ATP synthase complex (A0A286ZYL7 entry or part of it, further chain): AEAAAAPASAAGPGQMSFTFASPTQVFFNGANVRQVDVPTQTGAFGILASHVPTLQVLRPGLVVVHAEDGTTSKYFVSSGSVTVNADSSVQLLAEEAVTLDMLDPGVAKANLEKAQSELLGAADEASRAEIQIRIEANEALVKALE
Sequence of F1‐ATP synthase complex (A5GFX4 entry or part of it, further chain): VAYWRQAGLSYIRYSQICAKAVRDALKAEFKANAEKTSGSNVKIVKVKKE
Sequence of F1‐ATP synthase complex (P80021 44-553): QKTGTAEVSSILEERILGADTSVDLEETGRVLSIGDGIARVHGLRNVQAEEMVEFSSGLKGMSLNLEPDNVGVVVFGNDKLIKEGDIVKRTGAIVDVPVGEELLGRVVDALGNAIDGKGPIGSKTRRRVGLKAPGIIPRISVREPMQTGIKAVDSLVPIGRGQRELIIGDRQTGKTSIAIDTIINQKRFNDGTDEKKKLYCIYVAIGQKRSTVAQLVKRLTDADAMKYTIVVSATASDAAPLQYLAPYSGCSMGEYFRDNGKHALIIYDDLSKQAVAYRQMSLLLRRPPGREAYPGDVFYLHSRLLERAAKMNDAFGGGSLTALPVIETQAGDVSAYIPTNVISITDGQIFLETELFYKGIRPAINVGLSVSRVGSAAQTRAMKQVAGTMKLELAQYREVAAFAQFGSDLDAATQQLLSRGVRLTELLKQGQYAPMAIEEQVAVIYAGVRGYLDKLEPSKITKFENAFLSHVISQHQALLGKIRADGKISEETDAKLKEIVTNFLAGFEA
Source text: ATP5A and ATP5B are important components of FOF1–ATP synthase, also known as ATP synthase, which is a protein complex that catalyzes ATP synthesis by utilizing energy from the translocation of protons across biological membranes.^[ [40] ^] FOF1‐ATP synthase consists of two domains: the membrane‐spanning domain, FO, which acts as a proton channel, and the soluble catalytic domain, F1, which synthesizes ATP and is composed of nine subunits(α 3 β 3 γδɛ).^[ [41], [42], [43], [44] ^] […] To verify whether HI‐101 targeted ATP5A and ATP5B, we knocked down the subunits of F1 domains separately by shRNA.
F1‐ATPase at indicated concentrations was incubated with HI‐103 (4 nM), bodipy‐1 was as a negative molecule, conduct the experiment after incubating in 96‐well microplates of black polystyrene for 10 min. The FP results were analyzed with GraphPad Prism 9.0.

Row | concentration in the plasma (rough screen) [1] | IC50 [2] [µM] | SMILES | inhibition at 10 µM ([2]; HEK293T) [%] | other results
1 | – | – | CC[C@H]1/C=C/C=C/C[C@@H](C)[C@H](O)[C@@](C)(O)C(=O)[C@@H](C)[C@H](O)[C@@H](C)C(=O)[C@@H](C)[C@H](O)[C@@H](C)/C=C/C(=O)O[C@@H]2[C@H](C)[C@H](CC1)O[C@]1(CC[C@H](C)[C@H](C[C@@H](C)O)O1)[C@H]2C [Oligomycin, reference compound] | – | HIF‐1α transcriptional activity (relative luciferase activity), in words ([2]; HEK293T, hypoxia): decreased HIF‐1α transcriptional activity and protein level in a dose‐dependent manner; HIF‐1α protein level (HIF‐1α protein level): decreased HIF‐1α transcriptional activity and protein level in a dose‐dependent manner
2 | barely detectable in the plasma | 0.079 ± 0.002 | O=C(Nc1ccc(C23CC4CC(CC(C4)C2)C3)cc1)c1cc[nH]n1 [1‐4m, N‐(4‐((3r,5r,7r)‐Adamantan‐1‐yl)Phenyl)−1H‐Pyrazole‐3‐Carboxamide] | 99.8 ± 0.1 | –
3 | barely detectable in the plasma | 0.086 ± 0.003 | O=C(Nc1ccc(C23CC4CC(CC(C4)C2)C3)cc1)c1c[nH]cn1 [1‐4k, N‐(4‐((3r,5r,7r)‐Adamantan‐1‐yl)Phenyl)−1H‐Imidazole‐4‐Carboxamide] | 99.7 ± 0.2 | –
4 | barely detectable in the plasma | 0.026 ± 0.005 | O=C(Nc1ccc(C23CC4CC(CC(C4)C2)C3)cc1)c1cccc(O)c1 [1‐3n, N‐(4‐((3r,5r,7r)‐Adamantan‐1‐yl)Phenyl)−3‐Hydroxybenzamide] | 99.7 ± 0.1 | –

Row | SMILES | concentration in the plasma (rough screen) [1] | IC50 [2] [µM] | inhibition at 10 µM ([2]; HEK293T) [%] | other results
5 | C[N+](C)(C)CCCC(=O)Nc1ccc(C(=O)Nc2ccc(C34CC5CC(CC(C5)C3)C4)cc2)cc1 [1‐3au, 4‐((4‐((4‐((3r,5r,7r)‐Adamantan‐1‐yl)Phenyl)Carbamoyl)Phenyl)Amino)‐N,N,N‐Trimethyl‐4‐Oxobutan‐1‐Aminium] | high concentration in the plasma | 1.3 ± 0.3 | 89.9 ± 1.6 | AUC ([1]; mouse, ip, intraperitoneal, plasma, read-out: area under the curve (AUC0‐24 h)): 861 µg·h/mL; Cmax ([1]; mouse, ip, intraperitoneal, plasma, read-out: maximum concentration (Cmax)): 91.7 µg/mL; half-life ([1]; mouse, plasma, ip, intraperitoneal): 5.66 h; toxicity (body weight and mental status) [3]: not overtly toxic; tumor growth (MHCC97‐L xenograft tumor; ATP5B KO MHCC97‐L xenograft models): almost had no effect; tumor volume and weight (MHCC97‐L xenograft tumor; wildtype MHCC97‐L xenograft, daily intraperitoneal injection): reduced the tumor volume and weight; body weight (MHCC97‐L xenograft tumor; wildtype MHCC97‐L xenograft, nude mice): tolerant weight loss
6 | CC1=CC(C)=[N+]2C1=C(CCCC(=O)Nc1ccc(C(=O)Nc3ccc(C45CC6CC(CC(C6)C4)C5)cc3)cc1)c1c(C)cc(C)n1[B-]2(F)F [1‐3z, N‐(4‐((3r,5r,7r)‐Adamantan‐1‐yl)Phenyl)−4‐(4‐(5,5‐Difluoro‐1,3,7,9‐Tetramethyl‐5H‐4l4,5l4‐Dipyrrolo[1,2‐c:2′,1′‐f][1,3,2]Diazaborinin‐10‐yl)Butanamido)Benzamide] | – | 2.1 ± 0.5 | 80.3 ± 1.2 | Kd (F1‐ATP synthase complex): 0.0026 µM
